The term Ki denotes the equilibrium dissociation constant of an inhibitor or competing ligand from its target.

Data on one molecule can be found in ChEMBL document CHEMBL1148621, “Evaluation of carbon-11-labeled 2beta-carbomethoxy-3beta-[4'-((Z)-2-iodoethenyl)phenyl]nortropane as a potential radioligand for imaging the serotonin transporter by PET” (J Med Chem, 2006).

The target of assay [1] is Sodium-dependent noradrenaline transporter (Homo sapiens, UniProt P23975). The assay can be described thus: Displacement of [3H]nisoxetine from NET.
The target in assay [2] is Sodium-dependent dopamine transporter (Homo sapiens, UniProt Q01959). The assay can be described thus: Displacement of [123I]RTI-55 from DAT.
Sequence of Sodium-dependent dopamine transporter (Q01959 whole entry): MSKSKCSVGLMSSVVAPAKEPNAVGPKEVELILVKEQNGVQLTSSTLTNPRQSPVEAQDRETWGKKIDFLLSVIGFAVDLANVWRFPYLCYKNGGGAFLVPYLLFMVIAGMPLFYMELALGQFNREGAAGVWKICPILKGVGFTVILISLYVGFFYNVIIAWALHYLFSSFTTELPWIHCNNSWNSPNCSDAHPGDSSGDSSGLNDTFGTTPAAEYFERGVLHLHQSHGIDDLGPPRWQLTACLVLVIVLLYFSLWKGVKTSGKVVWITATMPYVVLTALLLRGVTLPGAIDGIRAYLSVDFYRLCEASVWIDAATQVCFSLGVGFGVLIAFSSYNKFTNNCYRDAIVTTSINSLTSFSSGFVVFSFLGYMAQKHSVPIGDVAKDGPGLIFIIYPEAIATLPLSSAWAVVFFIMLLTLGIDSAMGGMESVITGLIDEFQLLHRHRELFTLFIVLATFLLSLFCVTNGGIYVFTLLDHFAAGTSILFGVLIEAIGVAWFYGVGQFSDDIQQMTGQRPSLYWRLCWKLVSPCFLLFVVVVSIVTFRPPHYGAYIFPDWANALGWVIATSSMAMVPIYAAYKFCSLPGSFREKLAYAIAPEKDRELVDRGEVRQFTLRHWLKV

Sequence of Sodium-dependent noradrenaline transporter (P23975 whole entry): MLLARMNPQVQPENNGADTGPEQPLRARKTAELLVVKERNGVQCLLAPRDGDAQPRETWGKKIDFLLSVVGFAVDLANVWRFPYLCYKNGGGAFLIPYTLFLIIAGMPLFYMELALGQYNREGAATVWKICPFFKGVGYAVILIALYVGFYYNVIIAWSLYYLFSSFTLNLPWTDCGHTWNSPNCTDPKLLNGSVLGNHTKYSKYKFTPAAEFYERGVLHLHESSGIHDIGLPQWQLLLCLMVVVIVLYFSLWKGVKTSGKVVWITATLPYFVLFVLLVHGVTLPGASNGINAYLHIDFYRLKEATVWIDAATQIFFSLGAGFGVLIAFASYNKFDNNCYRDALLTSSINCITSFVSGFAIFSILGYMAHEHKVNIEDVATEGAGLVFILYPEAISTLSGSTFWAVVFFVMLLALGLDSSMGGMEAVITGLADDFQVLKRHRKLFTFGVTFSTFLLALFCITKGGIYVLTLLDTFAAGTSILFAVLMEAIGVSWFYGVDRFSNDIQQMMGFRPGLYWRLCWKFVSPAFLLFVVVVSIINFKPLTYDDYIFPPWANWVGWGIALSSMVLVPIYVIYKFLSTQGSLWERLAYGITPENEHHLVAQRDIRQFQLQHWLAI

In the case of `COC(=O)C1C2CCC(CC1c1ccc(/C=C\I)cc1)N2` (configuration not stated), the values for the inhibition constant Ki in assay [1] and in assay [2] were 15 nM and 6 nM, respectively.
